Assay results reported in patent US10959963B2, “Method for the treatment of fatty liver disease” (Golden Biotechnology Corporation, priority 2013, dated 2021).

Columns and labels:
Type in all cases: in vivo
[1] = system: C57BL/6 mice; experiment: Fatty liver disease caused by non-chemical injury (STZ + high-fat diet Metabolic Syndrome model), histology and blood/plasma biochemistry; settings: 48 mg/kg oral twice a day
From the text: (§1) In order to simulate an unhealthy diet tendency in humans, such as excess consumption of high caloric food, the example constructs an animal model using […] fed a high fat diet to evaluate the effects of chronic liver injury.
(§2) The assay simulates liver disease caused by a high fat diet through a “Metabolic Syndrome” model. That is, the model is different from conventional chemical induced models caused by toxic components such as CCl4. This model is distinguishable from the models caused by virus or alcohol.
(§3) The establishment of a long term high-fat diet is described as follows: First, the C57BL/6 mice were obtained from Charles River Laboratories Japan (Kanagawa, Japan). Animals were housed under specific-pathogen-free (SPF) conditions. The liver injury was developed in 18 male mice by subcutaneous injection of Streptozotocin (STZ) 2 days after birth (day 2). After 4 weeks, a high-fat commercial rodent diet ad libitum (CLEA JAPAN) were supplied. These mice were randomized into 3 groups before the treatment. The test compound was administered in a volume of 10 ml/kg twice a day for three weeks. In the control group (group A), six […] were fed with vehicle (corn oil from Sigma Chemical Co.) via intubation. Six mice in group B were orally administered vehicle and the test compound at a dose of 48 mg/kg twice a day (96 mg/kg per day).
(§4) (1) HE Staining. The HE staining method is performed as follows: Liver slices are cut from the livers' left side, embedded in Tissue-Tek® OCT™ Compounds (Sakura Finetek, Japan), snap frozen in liquid nitrogen, and stored at −80° C. 5 μm sections are cut, air-dried, fixed in acetone, air dried again and finally washed with phosphate buffered saline (PBS). Then, in the hematoxylin and eosin staining method, liver sections will be prefixed in a Bouin solution (formalin-acetic acid) for one week and then stained with Lillie-Mayer's Hematoxylin (Muto Pure Chemicals, Japan) and eosin solution (Wako, Japan) to visualize the lipid deposition, inflammations, cell necrosis and fibrosis, or stained with Masson's trichromic solution to visualize extra cellular matrix and collagen fibers of liver fibrosis development.
(§5) (2) Sirius Red Staining. The Sirius Red staining method is performed as follows: Liver slices are cut from the livers' left side, embedded in Tissue-Tek® OCT™ Compounds (Sakura Finetek, Japan), snap frozen in liquid nitrogen, and stored at −80° C. 5 μm sections are cut, air-dried, fixed in acetone, air dried again and finally washed with phosphate buffered saline (PBS). Then, liver sections are stained with a Picro-Sirius Red Solution (Waldeck GmbH & KG, Germany) to observe collagen deposition.
(§6) (3) Immunohistochemistry of Collagen Type 3. The immunohistochemistry assay for collagen Type 3 is performed as follows: Liver slices are cut from the livers' left side, embedded in Tissue-Tek® OCT™ Compounds (Sakura Finetek, Japan), snap frozen in liquid nitrogen, and stored at −80° C. 5 μm sections are cut, air-dried, fixed in acetone, air dried again and finally washed with phosphate buffered saline (PBS). For immunohistochemistry, endogenous peroxidase activity will be blocked by using 0.03% H2O2 for 5 minutes, followed by incubation with Block Ace (Dainippon Sumitomo Pharm, Japan) for 10 minutes. The sections will be incubated with the optimal dilution of anti-Type 3 collagen antibody overnight at 4° C. After incubation with an appropriate secondary antibody, the substrate reactions are performed using DAB/H2O2 solution (Nichirei, Japan).
(§7) (1) Whole Blood Glucose. Blood samples were collected in heparinized syringes (Novo-Heparin 5,000 units/5 ml, Mochida Pharmaceutical, Japan) by cardiac puncture, kept on ice and centrifuged at 1,000×g at 4° C. for 15 minutes. The supernatant was collected and stored at −80° C. until use. Blood glucose was measured in whole blood samples using G Checker (Sanko Junyaku Co. Ltd., Japan). […]

[2] = system: C57BL/6 mice; experiment: Fibrosis of steatohepatitis caused by non-chemical injury (STZ + high-fat diet model), histology and blood/plasma biochemistry
From the text: as §1, §2, §3, §4, §5, §6, §7

[3] = system: C57BL/6 mice; experiment: Reduction of fatty liver condition by Compound 1 with ergosterol versus Compound 1 alone (STZ + high-fat diet model), liver histology; settings: Compound 1 48 mg/kg twice a day oral, with or without ergosterol 12 mg/kg twice a day

COC1=C(OC)C(O)C(C/C=C(\C)CC/C=C(\C)CCC=C(C)C)C(C)C1=O (stereo not shown) [Compound 1, 4-hydroxy-2,3-dimethoxy-6-methyl-5 (3,7,11-trimethyl-dodeca-2,6,10-trienyl)-cyclohex-2-enone]
collagen deposition around the central veins and the bile ducts, Sirius red staining ([1]; compared to vehicle Group A): reduced
collagen fibers in the sinusoidal area, collagen Type 3 immunostaining ([1]; compared to vehicle Group A): tended to reduce the thickness and/or the length of the collagen fibers
infiltration of inflammatory cells, HE-stained liver sections ([1]; compared to vehicle Group A): tended to decrease the infiltration of inflammatory cells
macro-vesicular fat deposition, HE-stained liver sections ([1]; compared to vehicle Group A): tended to decrease the macro-vesicular fat deposition
plasma ALT level ([1]; vehicle Group A 64±64): 34±10 U/L
plasma AST level ([1]; vehicle Group A 202±177): 141±35 U/L
whole blood glucose level ([1]; vehicle Group A 636±137): 580 ± 122 mg/dL
plasma triglyceride (TG) ([1]; vehicle Group A 643±402): 229 ± 144 mg/dL
collagen deposition around the central veins and the bile ducts, Sirius red staining ([2]; compared to vehicle Group A): reduced
collagen fibers in the sinusoidal area, collagen Type 3 immunostaining ([2]; compared to vehicle Group A): tended to reduce the thickness and/or the length of the collagen fibers
macro-vesicular fat deposition, HE-stained liver sections ([2]; compared to vehicle Group A): tended to decrease the macro-vesicular fat deposition
plasma ALT level ([2]; vehicle Group A 47±22): 38±11 U/L
plasma AST level ([2]; vehicle Group A 143±42, change not significant): 167±87 U/L
whole blood glucose level ([2]; vehicle Group A 728±109): 566 ± 65 mg/dL
plasma triglyceride (TG) ([2]; vehicle Group A 758±877): 704 ± 450 mg/dL
collagen deposition, Sirius red staining ([3]; vs control group): tended only slightly to decrease the collagen deposition
collagen deposition (thickness of collagen fibers in the sinusoidal area), collagen Type 3 immunostaining ([3]; vs vehicle): tended to reduce the collagen deposition
infiltration of inflammatory cells, HE-stained liver sections ([3]; vs vehicle): did not affect the infiltration of inflammatory cells
macro vesicular fat deposition, HE-stained liver sections ([3]; vs vehicle): tended to decrease the macro vesicular fat deposition
